We go through seven compounds from patent US6432403B1, “Antibodies to polypeptides having prenylcysteine carboxyl methlytransferase activity or inhibiting activity” (New York University, priority 1997, dated 2002).

For series [1], the target named is T1, human pcCMT (Homo sapiens, UniProt O60725).
T1 construct: The 3.6-kb full-length HL60 pcCMT cDNA and an 852-bp cDNA fragment comprising the ORF were subcloned into the eukaryotic expression vectors; expressed in transfected cells; host or cells: COS-1 cells (pCDM8 vector, DEAE-dextran transfection); light membranes after nitrogen cavitation
Kind of series: Carboxyl methylation of Rho GTPases by COS-1 cell membranes expressing human pcCMT (S-adenosyl-L-[methyl-3H]methionine labeling, SDS-PAGE, fluorography). It is filed as biochemical. The note with it: HL60 pcCMT-transfected COS-1 cell membranes; 10 μM. As to the method: FIGS. 5A and 5B show the carboxyl methylation of ras-related GTPases by COS-1 cell membranes expressing ectopic human pcCMT. In FIG. 5A, neutrophil cytosol (CS) containing a mixture of Rho family proteins complexed with Rho-GDI (lanes 2, 3, 6, 7, 10, 11) or RhoA-GDI complexes partially purified from CS (lanes 4, 8, 12) were incubated with the methyl donor S-adenosyl-L-[methyl-^3H]methionine and light membranes derived from nitrogen cavitation of human neutrophils (lanes 1-4) or COS-1 cells transiently transfected with either human pcCMT (lanes 5-8) or vector alone (lanes 9-12). In some reactions (lanes 3, 7, 11) a competitive pcCMT inhibitor, AFC, was included. Reaction products were analyzed by SDS-PAGE and fluorography. The position of carboxyl methylated […] is indicated as is the position of protein phosphatase 2a (PP2a) that is methylated on a C-terminal leucine by an enzyme unrelated to pcCMT (Lee et al, 1993). […] Carboxyl methyltransferase activity was quantitated in membranes of COS-1 cells transfected with HL60 pcCMT using prenylcysteine analogs as defined substrates (Philips et al, 1995). […]

Series [2] can be described thus: Prenylcysteine carboxyl methyltransferase activity of membranes, AFC as substrate. The note with it: for Relative enzymatic activity: COS cell membranes, Vector Alone = 1; for Increase: relative to COS + Vector. It is filed as biochemical, human. An excerpt:
Expression of Recombinant pcCMT: The 3.6-kb full-length HL60 pcCMT cDNA and an 852-bp cDNA fragment comprising the ORF were subcloned into the eukaryotic expression vectors pCDM8 and pcDNA3.1 (Invitrogen, Carlsbad, Calif.). Myc-tagged pcCMT was made by adding a sequence encoding the 10-amino acid epitope of c-Myc recognized by monoclonal antibody 9E10 to the C terminus of pcCMT using patch PCR and subcloning into pcDNA3.1. pcCMT tagged at the C terminus with GFP was generated by subcloning the pcCMT ORF into the expression vector pGFP-N3 (Clontech). For pcCMT enzymatic assays, COS-1 cells were grown in 10-cm dishes and transfected with pcCMT with DEAE-dextran as described (Aruffo et al, 1987). For fluorescence microscopy, exponentially growing COS-1, CHO, and NIH3T3 cells were plated the day prior to transfection at 50-60% confluence and transfected with 2 μg of DNA using LipofectAMINE (Life Technologies, Inc.), Gaithersburg, Md.) according to the manufacturer's instructions.
(§1) Prenylcysteine Carboxyl Methyltransferase Assays: COS-1 cells transfected with HL60 pcCMT or vector alone were harvested at 48 hours with 5 mM EDTA and subjected, in parallel with human neutrophils, to nitrogen cavitation and discontinuous sucrose density centrifugation as described (Philips et al, 1991). Light membranes were assayed for pcCMT activity qualitatively by S-adenosyl-L- [methyl-^3H]methionine labeling (SDS-polyacrylamide gel electrophoresis and flurography) of Rho GTPases partially purified from neutrophil cytosol and quantitatively by carboxyl methylation of N-acetyl-S-trans,trans-farnesyl-L-cysteine (AFC) (heptane partition, alkaline hydrolysis, and measurement of vapor phase [^3H]methanol) as described (Philips et al, 1995)
(§2) To determine whether the HL60 STE14 protein homolog has prenylcysteine carboxyl methyltransferase activity, the cDNA was subcloned into a mammalian expression vector PCDM8 (Invitrogen, San Diego, Calif.) and transiently overexpressed ectopically in COS-1 cells. Membranes prepared from these cells were used as a source of recombinant enzyme. Farnesylated Ras GTPases require detergent for extraction from membranes. Therefore, geranylgeranylated neutrophil cytosolic Rho accessory protein, guanine nucleotide dissociation inhibitor (GDI), were utilized as endogenous substrates in an in vitro assay (FIGS. 5A and 5B). Untransfected COS-1 cell membranes had little pcCMT activity toward Rho proteins compared with that of membranes derived from human neutrophils (FIG. 5A). Transfection with the HL60 cDNA conferred pcCMT activity toward Rho GTPases on COS-1 membranes, and this activity was blocked by the competitive pcCMT inhibitor, AFC, with an ED50 (10 μM) identical to that for endogenous neutrophil pcCMT. Carboxyl methylation of Rac2 and RhoA by HL60 pcCMT-transfected COS-1 cell membranes was enhanced by guanosine 5′-3-O-(thio)triphosphate (GTPγS) (FIG. 5B), similar to the activity observed in neutrophil membranes (Philips et al, 1993). Carboxyl methyltransferase activity was quantitated in membranes of COS-1 cells transfected with HL60 pcCMT using prenylcysteine analogs as defined substrates (Philips et al, 1995). Untransfected COS-1 cell membranes had […] (n=5) of the pcCMT specific activity of neutrophil membranes toward AFC.

The subject of the next series is Δste14 yeast strain. The series can be described thus: ste14 complementation, patch mating test. It is filed as cell-based, S. cerevisiae. The conditions noted are these: cDNA expressed from a plasmid. As to the method: S. cerevisiae Strains, Growth, and ste14 Complementation: Complete (YEPD), synthetic (SD), and synthetic dropout media were prepared as described previously (Michaelis et al, 1988), except that dropout medium lacked cysteine. All experiments were performed at 30° C. Yeast transformations were carried out by either the lithium acetate method (Ito et al, 1983) or the Elble method (Elble, 1992). The ste14 deletion strains used are SM1188 (MATαΔste14-3:: TRP1 trp1 leu2 ura3 his4 can1) and SM1639 (MATαΔste14-4:: URA3 trp1 leu2 his4 can1) (Sapperstein et al, 1994). Plasmid expression of STE14 protein was accomplished by pSM1237 (CEN URA3 STE14). Human pcCMT was expressed in yeast by subcloning the HL60 pcCMT ORF into the BamHI SalI sites of the yeast expression plasmid pG1 (2μ TRP1) that utilizes a GPD promoter and a PGK transcription terminator and polyadenylation signal (Schena et al, 1991). The resulting construct was designated pG1-hCMT (2μ TRP1 hCMT). Patch mating tests were carried out essentially as described previously (Michaelis et al, 1988). briefly, patches of MATα cells grown on selective media were replica plated onto a lawn of the […], SM1068 (lys1), that had been spread on an SD plate. […]
To determine whether human pcCMT could substitute in vivo for the S. cerevisiae pcCMT, STE14 protein, a complementation analysis was done using mating as a biological readout. […]

The target of series [3] is T1, human pcCMT. Kind of series: Carboxyl methylation of prenylcysteine analogs (AFC, AGGC) as defined substrates by the recombinant enzyme in COS-1 membranes. It is filed as biochemical. As to the method: as §1, §2
The Michaelis constants of the recombinant enzyme, Km=7 μM for AFC and 0.6 μM for AGGC, were similar to those for the endogenous neutrophil enzyme (Pillinger et al, 1994). Thus, the cDNA described above encodes authentic human myeloid pcCMT.

T1 sequence (O60725 whole entry, the tested form may be a part): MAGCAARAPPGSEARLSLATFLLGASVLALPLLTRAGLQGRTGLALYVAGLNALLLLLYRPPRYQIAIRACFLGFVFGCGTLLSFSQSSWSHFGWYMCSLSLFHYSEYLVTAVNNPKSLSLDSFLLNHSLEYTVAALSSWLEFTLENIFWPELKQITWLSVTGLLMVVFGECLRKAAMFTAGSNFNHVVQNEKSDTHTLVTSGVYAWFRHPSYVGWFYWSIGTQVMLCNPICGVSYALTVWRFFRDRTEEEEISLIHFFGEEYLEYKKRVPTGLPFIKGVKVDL

Consider `Nc1nc2c(ncn2[C@@H]2O[C@H](COP(=O)(O)OP(=O)(O)OP(O)(O)=S)[C@@H](O)[C@H]2O)c(=O)[nH]1` [GTPγS, guanosine 5′-3-O-(thio)triphosphate], for which the “Effect on carboxyl methylation of Rac2 and RhoA” value at human pcCMT [1] was “enhanced”.

Turning to “HL60 pcCMT: human prenylcysteine carboxyl methyltransferase, 284 amino acid protein of SEQ ID NO:5, ectopically expressed in COS-1 cell membranes”, the Relative enzymatic activity in series [2] (Experiment #1) is 14.1; in series [2] (Experiment #2), 5.4; in series [2] (Experiment #3), 19.6. In addition, in series [2] (transfected COS-1 membranes, n=5, p<0.0005), the “Specific AFC carboxyl methyltransferase activity” value is 74.5 ± 6.8 pmol/mg/min. The “Increase in specific AFC carboxyl methyltransferase activity” value in series [2] (transfection of COS-1 cells) is 18-53 fold. Further, in the series with Δste14 yeast strain, the “Restoration of mating phenotype” value was “partially restored the mating phenotype”.

By Km is commonly meant the concentration of substrate that gives half-maximal velocity. Take `CC(=O)N[C@@H](CSC/C=C(\C)CC/C=C(\C)CC/C=C(\C)CCC=C(C)C)C(=O)O` (stereo in doubt) [AGGC, N-acetyl-S-all-trans-geranylgeranyl-L-cysteine]: the “Increase in carboxyl methylation of the substrate on pcCMT transfection” value on human pcCMT [3] (n=2) is 18 fold. For the same compound, the Km on human pcCMT [3] (recombinant enzyme, read-out: Michaelis constant Km) was 0.6 µM.

“COS + pcCMT cDNA: membranes of COS cells transfected with pCDM8 + pcCMT full-length cDNA”: the Activity worked out at 62.7 pmol/mg/min in series [2] (Experiment 1), 17.7 pmol/mg/min in series [2] (Experiment 2) and 35.3 pmol/mg/min in series [2] (Experiment 3). Further, the Increase is reported as 12 fold in series [2] (Experiment 1), 9 fold in series [2] (Experiment 2) and 21 fold in series [2] (Experiment 3).

For the compound “COS + pcCMT ORF: membranes of COS cells transfected with pCDM8 + pcCMT ORF only”, the Activity in series [2] (Experiment 2) came to 84.6 pmol/mg/min; in series [2] (Experiment 3), 90.7 pmol/mg/min. Also, the Increase is given as 45 fold in series [2] (Experiment 2) and 53 fold in series [2] (Experiment 3).

In turn, “PcCMT-Myc: pcCMT with the 10-amino acid c-Myc epitope added at the C terminus” returned a Relative enzymatic activity in series [2] (Experiment #1) of 11.1.

“pcCMT-FLAG: pcCMT with the 8-amino acid FLAG epitope as C-terminal extension”: the Relative enzymatic activity in series [2] (Experiment #2) amounted to 5.45; in series [2] (Experiment #3) it was 18.5.
